Measured values published in US20100075965A1, “PI3 KINASE INHIBITORS AND METHODS OF THEIR USE” (Novartis AG, priority 2006, published 2010).

Experiments:
A2780 cells = test: Viability assay in A2780 (Cell Titer Glo); format: cell-based, human; conditions: Homo sapiens; A2780 cells; read-out: A2780 Cell prolif. EC50
Experimental: Cell viability was assessed with Cell Titer Glo assay, Promega. Cells were seeded in TC treated 96-well plates at a density of 1,000 (A2780 cells) per well in DMEM with 10% FBS, 1% Sodium Pyruvate, and 1% Penicillin Streptomycin for a minimum of 2 hrs prior to addition of compound. Test compounds were serially diluted (3 fold) in DMSO to 500× the final concentration. For each concentration of test compound, 2 μL (500×) aliquots of compound or 100% DMSO (control) were diluted in 500 μL of culture medium to 2× final concentration then diluted 1× on the cells. Cells were incubated for 72 hrs at 37° C., 5% CO2. After which Cell Titer Glo is added to determine viable cells, the assay was performed according to the manufacturer's instruction (Promega Corporation, Madison, Wis. USA). Each experimental condition was performed in duplicate. Raw data was imported in Abase and EC50s calculated with XL-fit data analysis software and are shown in Tables 1 and 2 in the column labeled “A2780 Cell prolif. EC50”.

PI3 K Alpha = PI3 K Alpha (Homo sapiens, UniProt P42336); test: PI3 kinase phosphorylation assays (homogenous solution phase, one step solid phase, ATP depletion/KinaseGlo); format: biochemical; conditions: read-out: PI3K Alpha IC50
Chain of PI3 K Alpha (P42336 whole entry): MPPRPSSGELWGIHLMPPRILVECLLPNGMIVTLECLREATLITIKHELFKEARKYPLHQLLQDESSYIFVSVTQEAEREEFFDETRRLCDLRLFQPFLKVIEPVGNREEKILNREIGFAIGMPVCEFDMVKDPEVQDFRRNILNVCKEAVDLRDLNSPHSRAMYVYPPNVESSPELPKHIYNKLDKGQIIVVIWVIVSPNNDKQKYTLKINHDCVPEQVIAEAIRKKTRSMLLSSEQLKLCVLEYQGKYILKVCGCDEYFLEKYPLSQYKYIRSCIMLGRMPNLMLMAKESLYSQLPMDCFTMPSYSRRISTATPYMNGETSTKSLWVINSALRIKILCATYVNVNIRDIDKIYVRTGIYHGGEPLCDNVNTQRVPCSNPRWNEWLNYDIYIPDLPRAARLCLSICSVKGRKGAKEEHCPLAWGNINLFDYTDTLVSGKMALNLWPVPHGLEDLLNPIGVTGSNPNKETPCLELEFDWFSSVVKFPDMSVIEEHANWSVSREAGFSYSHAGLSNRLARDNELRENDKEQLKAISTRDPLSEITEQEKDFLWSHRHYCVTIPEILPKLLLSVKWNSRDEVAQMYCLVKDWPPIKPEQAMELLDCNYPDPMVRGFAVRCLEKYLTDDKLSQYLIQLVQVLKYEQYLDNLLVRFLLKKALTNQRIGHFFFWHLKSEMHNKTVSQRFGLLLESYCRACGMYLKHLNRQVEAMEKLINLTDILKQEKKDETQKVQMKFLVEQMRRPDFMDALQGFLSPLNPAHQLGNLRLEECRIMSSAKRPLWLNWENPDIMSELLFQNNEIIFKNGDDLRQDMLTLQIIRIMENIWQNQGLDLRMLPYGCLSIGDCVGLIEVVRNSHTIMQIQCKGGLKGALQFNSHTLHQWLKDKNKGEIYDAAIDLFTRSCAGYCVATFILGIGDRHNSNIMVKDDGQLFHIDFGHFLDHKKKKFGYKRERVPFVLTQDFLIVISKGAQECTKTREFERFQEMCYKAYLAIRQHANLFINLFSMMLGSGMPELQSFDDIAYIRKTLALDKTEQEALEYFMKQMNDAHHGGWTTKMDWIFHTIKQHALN
Chain of PI3 K Alpha (P27986 whole entry partner): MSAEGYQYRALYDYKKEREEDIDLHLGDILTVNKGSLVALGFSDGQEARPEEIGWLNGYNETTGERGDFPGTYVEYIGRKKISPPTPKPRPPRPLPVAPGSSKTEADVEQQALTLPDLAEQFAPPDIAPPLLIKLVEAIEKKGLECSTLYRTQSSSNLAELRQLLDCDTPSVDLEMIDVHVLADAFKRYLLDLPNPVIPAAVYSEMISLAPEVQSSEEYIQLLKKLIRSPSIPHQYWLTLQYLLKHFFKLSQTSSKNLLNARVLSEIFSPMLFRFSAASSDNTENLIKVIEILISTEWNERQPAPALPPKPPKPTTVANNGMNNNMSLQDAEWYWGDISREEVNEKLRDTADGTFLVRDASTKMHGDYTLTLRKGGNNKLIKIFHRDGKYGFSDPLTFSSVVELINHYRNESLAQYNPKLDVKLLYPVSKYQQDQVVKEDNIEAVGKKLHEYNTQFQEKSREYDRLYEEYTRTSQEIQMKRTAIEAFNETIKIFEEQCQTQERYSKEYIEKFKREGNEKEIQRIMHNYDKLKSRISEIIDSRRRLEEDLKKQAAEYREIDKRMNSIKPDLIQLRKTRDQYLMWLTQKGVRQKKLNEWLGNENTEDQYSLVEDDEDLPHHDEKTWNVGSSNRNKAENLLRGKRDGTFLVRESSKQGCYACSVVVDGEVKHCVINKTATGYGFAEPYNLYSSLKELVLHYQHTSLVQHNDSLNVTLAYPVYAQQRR
Experimental: Compounds to be tested are dissolved in DMSO and directly distributed into 384-well flashplates at 1.25 μL per well. To start the reaction, 20 μL of 6 nM PI3 kinase are added into each well followed by 20 μL of 400 nM ATP containing a trace of radiolabeled ATP and 900 nM 1-alpha-phosphatidylinositol (PI). The plates are briefly centrifuged to remove any air gap. The reaction is performed for 15 minutes and then stopped by the addition of 20 μL of 100 mM EDTA. The stopped reaction is incubated overnight at RT to allow the lipid substrate to bind by hydrophobic interaction to the surface of the flashplate. The liquid in the wells is then washed away, and the labeled substrate is detected with scintillation counting.
This method is similar to Assay 1 except that the lipid substrate (1-alpha-phosphatidylinositol (PI)) is first dissolved in a coating buffer and incubated on flashplate at room temperature overnight to allow the lipid substrate to bind by hydrophobic interaction to the surface of the flashplate. Unbound substrate is then washed away. On the day of assay, 20 μL of 6 nM PI3 kinase are added into each well followed by 20 μL of 400 nM ATP containing trace of radiolabeled ATP. Compounds are added together with enzyme and ATP to the lipid-coated plates. The plates are briefly centrifuged to remove any air gap. The reaction is performed for two to three hours. The reaction is stopped by addition of 20 μL of 100 mM EDTA or by immediate plate washing. Phosphorylated lipid substrate is detected by scintillation counting.
Compounds to be tested are dissolved in DMSO and directly distributed into a black 384-well plate at 1.25 μL per well. To start the reaction, 25 μL of 10 nM PI3 kinase and 5 μg/mL 1-alpha-phosphatidylinositol (PI) are added into each well followed by 25 μL of 2 μM ATP. The reaction is performed until approx 50% of the ATP is depleted, and then stopped by the addition of 25 μL of KinaseGlo solution. The stopped reaction is incubated for 5 minutes and the remaining ATP is then detected via luminescence.

Compound | EC50 (A2780 cells) [µM] | IC50 (PI3 K Alpha) [µM]
Nc1ncc(-c2ccc3nc(NC(=O)N4CC[C@H]4C(=O)O)cn3c2)cc1C(F)(F)F [Example 45, (S)-1-(6-(6-amino-5-(trifluoromethyl)pyridin-3-yl)imidazo[1,2-a]pyridin-2-ylcarbamoyl) azetidine-2-carboxylic acid] | < 25 | < 10
NC(=O)N1CCC[C@H]1C(=O)Nc1cn2cc(-c3cnc(N)c(C(F)(F)F)c3)ccc2n1 [Example 46, (S)-N2-(6-(6-amino-5-(trifluoromethyl)pyridin-3-yl)imidazo[1,2-a]pyridin-2-yl)pyrrolidine-1,2-dicarboxamide] | < 10 | < 10
Nc1ncc(-c2ccc3nc(NC(=O)Cc4ccccn4)cn3c2)cc1C(F)(F)F [Example 52, N-(6-(6-amino-5-(trifluoromethyl)pyridin-3-yl)imidazo[1,2-a]pyridin-2-yl)-2-(pyridin-2-yl)acetamide] | < 10 | < 1
Nc1ncc(-c2ccc3nc(NC(=O)CN4CCCCC4)cn3c2)nc1OCC(F)(F)F [Example 109, N-(6-(5-amino-6-(2,2,2-trifluoroethoxy)pyrazin-2-yl)imidazo[1,2-a]pyridin-2-yl)-2-(piperidin-1-yl)acetamide] | < 1 | < 1
CC(=O)Nc1cn2c(C)c(-c3cnc(N)c(OCC(F)(F)F)n3)ccc2n1 [Example 112, N-(6-(5-amino-6-(2,2,2-trifluoroethoxy)pyrazin-2-yl)-5-methylimidazo [1,2-a]pyridin-2-yl)acetamide] | < 10 | < 1
Nc1ncc(-c2ccc3nc(NC(=O)[C@@H]4CCCN4)cn3n2)cc1C(F)(F)F [Example 129, (S)-N-(6-(6-amino-5-(trifluoromethyl)pyridin-3-yl)imidazo[1,2-b]pyridazin-2-yl)pyrrolidine-2-carboxamide] | < 10 | < 1
CC(=O)Nc1cn2cc(-c3cnc(N)c(-c4cccc(F)c4)c3)ccc2n1 [Example 134, N-(6-(6-amino-5-(3-fluorophenyl)pyridin-3-yl)imidazo[1,2-a]pyridin-2-yl)acetamide] | < 10 | < 1
NCCCC(=O)Nc1cn2nc(-c3cnc(N)c(C(F)(F)F)c3)ccc2n1 [Example 137, 4-amino-N-(6-(6-amino-5-(trifluoromethyl)pyridin-3-yl)imidazo[1,2-b]pyridazin-2-yl)butanamide] | < 25 | < 1
Nc1ncc(-c2ccc3nc(NC(=O)CCCC(=O)O)cn3n2)cc1C(F)(F)F [Example 138, 5-(6-(6-amino-5-(trifluoromethyl)pyridin-3-yl)imidazo[1,2-b]pyridazin-2-ylamino)-5-oxopentanoic acid] | < 25 | < 1
Nc1ncc(-c2ccc3nc(NC(=O)C4CNC4)cn3n2)cc1Cl [Example 142, N-(6-(6-amino-5-chloropyridin-3-yl)imidazo[1,2-b]pyridazin-2-yl)azetidine-3-carboxamide] | < 25 | < 1
Nc1ncc(-c2ccc3nc(NC(=O)c4ccc(F)nc4)cn3c2)cc1C(F)(F)F [Example 143, N-(6-(6-amino-5-(trifluoromethyl)pyridin-3-yl)imidazo[1,2-a]pyridin-2-yl)-6-fluoronicotinamide] | < 25 | < 1
COc1nc(-c2cc(F)c3nc(NC(C)=O)cn3c2)cnc1N [Example 145, N-(6-(5-amino-6-methoxypyrazin-2-yl)-8-fluoroimidazo [1,2-a]pyridin-2-yl)acetamide] | < 25 | < 1
CC(=O)NC1CCN(C(=O)Nc2cn3cc(-c4cnc(N)c(C(F)(F)F)c4)ccc3n2)C1 (centres unmarked) [Example 146, 3-acetamido-N-(6-(6-amino-5-(trifluoromethyl)pyridin-3-yl)imidazo[1,2-a]pyridin-2-yl)pyrrolidine-1-carboxamide] | < 25 | < 1
NC(=O)N1CC[C@H]1C(=O)Nc1cn2cc(-c3cnc(N)c(C(F)(F)F)c3)ccc2n1 [Example 148, (S)-N2-(6-(6-amino-5-(trifluoromethyl)pyridin-3-yl)imidazo[1,2-a]pyridin-2-yl)azetidine-1,2-dicarboxamide] | < 25 | < 1
Nc1ncc(-c2ccc3nc(NC(=O)N4CCC(C(=O)O)C4)cn3c2)cc1C(F)(F)F (centres unmarked) [Example 151] | < 25 | < 1
CC(=O)Nc1cn2cc(-c3cnc(N)c(C(=O)N4CCN(C(=O)OC(C)(C)C)CC4)c3)ccc2n1 [Example 152, tert-butyl 4-(5-(2-acetamido-imidazo[1,2-a]pyridin-6-yl)-2-aminonicotinoyl) piperazine-1-carboxylate] | < 25 | < 1
CNC(=O)C1CCN(C(=O)Nc2cn3cc(-c4cnc(N)c(C(F)(F)F)c4)ccc3n2)C1 (centres unmarked) [Example 154, N1-(6-(6-amino-5-(trifluoromethyl)pyridin-3-yl)imidazo[1,2-a]pyridin-2-yl)-N3-methylpyrrolidine-1,3-dicarboxamide] | < 25 | < 1
C/C=C\c1c(NC(C)=O)nc2ccc(-c3cnc(N)c(C(F)(F)F)c3)cn12 [Example 156, (Z)-N-(6-(6-amino-5-(trifluoromethyl)pyridin-3-yl)-3-(prop-1-enyl)imidazo [1,2-a]pyridin-2-yl)acetamide] | < 25 | < 1
CC(=O)Nc1cn2cc(-c3cnc(N)c(/C=N/OC(C)(C)C)c3)ccc2n1 [Example 157, (E)-N-(6-(6-amino-5-((tert-butoxyimino)methyl)pyridin-3-yl)imidazo[1,2-a]pyridin-2-yl)acetamide] | < 25 | < 1

More lines, now with the values ahead:

EC50 (A2780 cells) [µM] | IC50 (PI3 K Alpha) [µM] | Compound
< 25 | < 1 | CC(=O)Nc1cn2nc(-c3cnc(N)c(C(=O)NCCN)c3)ccc2n1 [Example 139, 5-(2-acetamido-imidazo[1,2-b]pyridazin-6-yl)-2-amino-N-(2-aminoethyl) nicotinamide]
< 25 | < 1 | CC(=O)Nc1cn2nc(-c3cnc(N)c(C(=O)NCCO)c3)ccc2n1 [Example 140, 5-(2-acetamido-imidazo[1,2-b]pyridazin-6-yl)-2-amino-N-(2-hydroxyethyl) nicotinamide]
< 25 | < 1 | CC(=O)Nc1cn2nc(-c3cnc(N)c(C(=O)NCCNS(C)(=O)=O)c3)ccc2n1 [Example 141, 5-(2-acetamido-imidazo[1,2-b]pyridazin-6-yl)-2-amino-N-(2-(methylsulfon amido)ethyl) nicotinamide]
< 25 | < 1 | CC(=O)Nc1cn2cc(-c3ccc(N)nc3C)ccc2n1 [Example 144, N-(6-(6-amino-2-methylpyridin-3-yl)imidazo[1,2-a]pyridin-2-yl)acetamide]
< 25 | < 1 | CC(=O)Nc1cn2cc(-c3cnc(N)c(C(=O)NCCO)n3)ccc2n1 [Example 147, 6-(2-acetamido-imidazo[1,2-a]pyridin-6-yl)-3-amino-N-(2-hydroxyethyl) pyrazine-2-carboxamide]
< 25 | < 1 | CC(=O)Nc1cn2cc(-c3cnc(N)c(OC4CNC4)n3)ccc2n1 [Example 149, N-(6-(5-amino-6-(azetidin-3-yloxy)pyrazin-2-yl)imidazo[1,2-a]pyridin-2-yl)acetamide]
< 25 | < 1 | CO/N=C/c1cc(-c2ccc3nc(NC(C)=O)cn3c2)cnc1N [Example 150, (E)-N-(6-(6-amino-5-((methoxy-imino)methyl)pyridin-3-yl)imidazo[1,2-a]pyridin-2-yl)acetamide]
< 25 | < 1 | COCCOc1nc(-c2ccc3nc(NC(=O)C4CCN4)cn3c2)cnc1N (centres unmarked) [Example 153, N-(6-(5-amino-6-(2-methoxyethoxy)pyrazin-2-yl)imidazo[1,2-a]pyridin-2-yl)azetidine-2-carboxamide]
< 25 | < 1 | CC(=O)Nc1cn2cc(-c3cnc(N)c(C(=O)N4CCCC4)c3)ccc2n1 [Example 155, N-(6-(6-amino-5-(pyrrolidine-1-carbonyl)pyridin-3-yl)imidazo[1,2-a]pyridin-2-yl)acetamide]
